Measured values taken from patent US7763582B2 (University of Medicine and Dentistry Of New Jersey, priority 2006, dated 2010).

Assays:
fractured femora [1] = experiment: Qualitative histology of early fracture callus at day 4; assay type: in vivo, BB Wistar rats
Source text: (§1) A closed mid-diaphyseal fracture was created in the right femur using the following modification of the methods described in Bonnarens, F., and Einhorn, T. A., “Production of a standard closed fracture in laboratory animal bone,” J. Orthop. Res., vol. 2, pages 97-101 (1984). Once a medial, parapatellar incision was made, the patella was dislocated laterally and the interchondylar notch of the distal femur was exposed. An entry hole was made with an 18 gauge needle and the femur was reamed. A 16 gauge teflon cannula was then inserted into the intramedullary canal to stabilize the fracture while a closed midshaft fracture was created unilaterally with the use of a three-point bending, Einhorn fracture machine. Once the fracture was created, the cannula was removed and replaced with a 1.2 mm hollow rod in the Sprague-Dawley rats and a 1 mm Kirschner wire in the BB Wistar rat. […] The animals were allowed to ambulate freely immediately post-fracture.
The fractured femora were resected at day 4, decalcified, embedded and sectioned using standard histological techniques. To identify cartilage formation, sections were stained with Accustain™ Trichrome Staining kit (Masson, Sigma Diagnostics, St. Louis, Mo.) for histologic observation. The staining procedure consisted of fixing the sections in Accustain™ Bouins solution (Sigma Diagnostics, St. Louis, Mo.) overnight. […]

fractured femora [2] = experiment: Mechanical (torsional) testing of fractured femora, Sprague-Dawley rats; assay type: in vivo; settings: 4 weeks
Source text: as §1
(§2) Fractured and contralateral femora were resected at 4 weeks and cleaned of soft tissue. Femora were cleaned of soft tissue and the intramedullary rod was removed. Samples were wrapped in saline (0.9% NaCl) soaked gauze and stored at −20° C. Prior to testing, all femora were removed from the freezer and allowed to thaw to room temperature for three to four hours. The proximal and distal ends of the fractured and contralateral femora were embedded in Wood's metal. Torsional testing was conducted using a servohydraulics machine (MTS Systems Corp., Eden Prairie, Minn.) with a 20 Nm reaction torque cell (Interface, Scottsdale, Ariz.) and tested to failure at a rate of 2.0 deg/sec.
(§3) The peak torque (T), torsional rigidity (TR), […] (G) and the maximum shear stress ( ) were determined through standard equations modeling each femur as a hollow ellipse. In order to compare the biomechanical parameters between different groups, the data was normalized by dividing each fractured femur value by its corresponding intact, contralateral femur value.

fractured femora [3] = experiment: Mechanical (torsional) testing of fractured femora, BB Wistar rats (Example 1); assay type: in vivo; settings: 4 weeks
Source text: as §1, §2, §3

[4] = fractured femora, versus untreated, FIG. 3
[5] = normalized to intact contralateral femora
[6] = fractured femora, versus untreated, FIG. 4

Q: What does the source list for ultralente insulin?
A: osteoid matrix in callus (fractured femora [1]; not present in untreated group): present; chondrocytes in fracture callus (histology) (fractured femora [1]; untreated group showed only proliferating chondrocytes, FIG. 2): presence of proliferating and hypertrophic chondrocytes; maximum shear stress (fractured femora [2]; [4]): significantly increased; sheer modulus (fractured femora [2]; [4]): significantly increased; torque to failure (fractured femora [2]; [4]): significantly increased; torsional rigidity (fractured femora [2]; [4]): significantly increased; mechanical properties of the fractured femora (fractured femora [2]; versus untreated group, FIG. 3): improved; percent maximum shear stress (fractured femora [2]; [5]): trending towards significance; percent sheer modulus (fractured femora [2]; [5]): significantly increased; percent torque to failure (fractured femora [2]; [5]): trending towards significance; percent torsional rigidity (fractured femora [2]; [5]): significantly increased; maximum shear stress (fractured femora [3]; [6]): significantly increased; sheer modulus (fractured femora [3]; [6]): trending towards significance; torque to failure (fractured femora [3]; [6]): significantly increased; torsional rigidity (fractured femora [3]; [6]): trending towards significance; mechanical properties of the fractured femora (fractured femora [3]; versus untreated group, FIG. 4): improved; percent sheer modulus (fractured femora [3]; [5]): trending towards significance; percent torsional rigidity (fractured femora [3]; [5]): trending towards significance
